Source: patent US8716326B2, “Isoindolinone derivatives, preparation method thereof and a pharmaceutical composition comprising same” (Korea Research Institute of Chemical Technology, priority 2009, dated 2014)

System: Runx2
Assay: Runx2 activity, 6xOSE2-Luc luciferase reporter in transfected C2C12 cells
Format: cell-based, Mouse
Settings: Mus musculus, 24 hrs, read-out: luciferase activity relative to control set as 1
Method: Mouse premyoblast cell (C2C12 cell) was transfected using receptor vector 6xOSE2-Luc in order to investigate the activity of the amide compound of the present invention on Runx2.
Specifically, the receptor vector 6xOSE2-Luc was prepared by inserting an artificial promoter linked by six tandem copies of the OSE2 (osteoblast specific element-2) into vector pGL3 (Promega; Madison, Wis., U.S.A.), and then, cloned into the C2C12 cell to be transfected (Kim et al., Journal of Cellular Biochemistry, 91: 1239-1247, 2004). The OSE2 is the binding site of Runx2 in the promoter of osteocalcin which is a bone marker.
C2C12 cells (5,000 cells/well) were plated onto 96-well plates using 10% FBS (fetal bovine serum; Hyclone)-containing DMEM (Dulbecco's Modified Eagle's Medium), the medium was replaced with 5% FBS-containing DMEM after 24 hrs, and treated with each of the amide compounds obtained in Examples 1 to 94 at various concentrations of 2.5 μM, 5.0 μM, 10 μM, and 20 μM. As a control, dimethyl sulfoxide (DMSO) vehicle was applied to the cell in an amount same as that of the amide compound. After 24 hrs, the luciferase activity in the cell lysate was measured by using Dual-Luciferase Reporter Assay System (Promega). The luciferase activity of the amide compound of the present invention was calculated as a value relative to that observed for the control which was set as 1.

Row | Compound | fold induction at 2.5 µM | fold induction at 5 µM | fold induction at 10 µM | fold induction at 20 µM
1 | COc1ccc(-c2c3c(cc(OC)c2OC)C(=O)N(Cc2ccc(C(=O)Nc4ccccc4N)cc2)C3)cc1 [Example 5, N-(2-aminophenyl)-4-((5,6-dimethoxy-4-(4-methoxyphenyl)-1-oxoisoindolin-2-yl)methyl)benzamide] | 30.4 | 25.3 | 17.7 | 15.4
2 | COc1cc2c(c(-c3ccc(C(F)(F)F)cc3)c1OC)CN(CCCCCC(=O)Nc1ccccc1N)C2=O [Example 35, N-(2-aminophenyl)-6-(4-(4-(trifluoromethyl)phenyl)-5,6-dimethoxy-1-oxoisoindolin-2-yl)hexanamide] | 2.9 | 6.7 | 14.2 | 22.3
3 | Nc1ccccc1NC(=O)c1ccc(CN2Cc3cc(-c4ccc5ccccc5c4)ccc3C2=O)cc1 [Example 67, N-(2-aminophenyl)-4-((5-(naphthalen-2-yl)-1-oxoisoindolin-2-yl)methyl)benzamide] | 1.4 | 2 | 2.9 | 6.1
4 | NC(=O)c1cccc(-c2cccc3c2CN(Cc2ccc(C(=O)Nc4ccccc4N)cc2)C3=O)c1 [Example 26, 3-[2-(4-[(2-aminophenyl)carbamoyl]phenylmethyl)-1-oxo-2,3-dihydro-1H-isoindol-4-yl]benzamide] | 1.6 | 2.3 | 4.4 | 18.4
5 | Cc1cc(C(=O)NCCCCCC(=O)Nc2ccccc2N)ccc1-c1ccccc1 [Example 86, N-(5-(2-aminophenylcarbamoyl)pentyl)-3-methyl-4-phenyl-benzamide] | 1.2 | 1.9 | 3.4 | 3.7
6 | COc1ccc(-c2ccc(C(=O)NCCCCCC(=O)Nc3ccccc3N)cc2C)c(OC)c1 [Example 87, N-(5-(2-aminophenylcarbamoyl)pentyl)-3-methyl-4-(2,4-dimethoxyphenyl)-benzamide] | 1.7 | 2.6 | 5.6 | 8.5
7 | COc1cc(C(=O)NCc2ccc(C(=O)Nc3ccccc3N)cc2)c(C)c(-c2cc(F)cc(F)c2)c1OC [Example 79, N-(2-aminophenyl)-4-((2-methyl-3-(3,5-difluorophenyl)-4,5-dimethoxy-benzamido)methyl)benzamide] | 13.5 | 24.4 | 31.3 | 31.7
8 | Nc1ccccc1NC(=O)c1ccc(CN2Cc3cc(-c4ccc5c(c4)OCO5)ccc3C2=O)cc1 [Example 66, N-(2-aminophenyl)-4-((5-(benzo[d][1,3]dioxol-6-yl)-1-oxoisoindolin-2-yl)methyl)benzamide] | 14.2 | 9.4 | 7.2 | 7.2
9 | COc1ccc(-c2cccc3c2CN(CCCCCC(=O)NO)C3=O)c(OC)c1 [Example 39, N-hydroxy-6-(4-(2,4-dimethoxyphenyl)-1-oxoisoindolin-2-yl)hexanamide] | 1.4 | 2.1 | 5.3 | 25.6
10 | Nc1ccccc1NC(=O)c1ccc(CN2Cc3cc(-c4cncnc4)ccc3C2=O)cc1 [Example 58, N-(2-aminophenyl)-4-((1-oxo-5-(pyrimidin-5-yl)isoindolin-2-yl)methyl)benzamide] | 11.7 | 17.1 | 21.6 | 21.6
11 | Nc1ccccc1NC(=O)c1ccc(CN2Cc3c(cccc3-c3cccnc3)C2=O)cc1 [Example 14, N-(2-aminophenyl)-4-((1-oxo-4-(pyridin-3-yl)isoindolin-2-yl)methyl)benzamide] | 12 | 15.7 | 15.4 | 16.9
12 | COc1cc2c(c(-c3ccccc3)c1OC)CN(Cc1ccc(C(=O)Nc3ccccc3N)cc1)C2=O [Example 2, N-(2-aminophenyl)-4-((5,6-dimethoxy-1-oxo-4-phenylisoindolin-2-yl)methyl)benzamide] | 27.3 | 24.8 | 19.7 | 21.7
13 | Nc1ccccc1NC(=O)c1ccc(CN2Cc3cc(Br)ccc3C2=O)cc1 [Example 56, N-(2-aminophenyl)-4-((5-bromo-1-oxoisoindolin-2-yl)methyl)benzamide] | 1.1 | 1.1 | 1.1 | 1.1
14 | COc1cc(C(=O)NCc2ccc(C(=O)Nc3ccccc3N)cc2)c(C)c(-c2cccc(N)c2)c1OC [Example 77, N-(2-aminophenyl)-4-((3-(3-aminophenyl)-4,5-dimethoxy-2-methyl-benzamido)methyl)benzamide] | 4.9 | 11 | 24.5 | 33.5
15 | COc1ccc(-c2cccc3c2CN(CCCCCC(=O)NO)C3=O)cc1OC [Example 40, N-hydroxy-6-(4-(3,4-dimethoxyphenyl)-1-oxoisoindolin-2-yl)hexanamide] | 1.1 | 1.1 | 1.7 | 1.6
16 | Nc1ccccc1NC(=O)c1ccc(CN2Cc3c(cccc3-c3cncnc3)C2=O)cc1 [Example 10, N-(2-aminophenyl)-4-((1-oxo-4-(pyrimidin-5-yl)isoindolin-2-yl)methyl)benzamide] | 7.9 | 11.6 | 14.4 | 16.7
17 | Cc1c(C(=O)NCCCCCC(=O)Nc2ccccc2N)cccc1-c1cccnc1 [Example 83, N-(5-(2-aminophenylcarbamoyl)pentyl)-2-methyl-3-(3-pyridinyl)-benzamide] | 1.3 | 2.1 | 5.6 | 15.7
18 | COc1ccc(-c2ccc3c(c2)CN(CCCCCC(=O)NO)C3=O)c(OC)c1 [Example 50, N-hydroxy-6-(5-(2,4-dimethoxyphenyl)-1-oxoisoindolin-2-yl)hexanamide] | 1.9 | 5 | 22.1 | 42.7
19 | N#Cc1ccc(-c2cccc3c2CN(Cc2ccc(C(=O)Nc4ccccc4N)cc2)C3=O)cc1 [Example 20, N-(2-aminophenyl)-4-[4-(4-cyanophenyl)-1-oxo-2,3-dihydro-1H-isoindol-2-yl]methylbenzamide] | 16.2 | 19.4 | 19.3 | 16.8
20 | Cc1cc(C)cc(-c2ccc3c(c2)CN(CCCCCC(=O)NO)C3=O)c1 [Example 52, N-hydroxy-6-(5-(3,5-dimethylphenyl)-1-oxoisoindolin-2-yl)hexanamide] | 2.4 | 4.7 | 12.6 | 20.4
21 | Cc1c(Br)cccc1C(=O)NCc1ccc(C(=O)Nc2ccccc2N)cc1 [Example 68, N-(2-aminophenyl)-4-((3-bromo-2-methylbenzamido)methyl)benzamide] | 9 | 10.1 | 12.8 | 15.6
22 | Cc1c(Br)cccc1C(=O)NCCCCCC(=O)Nc1ccccc1N [Example 80, N-(5-(2-aminophenylcarbamoyl)pentyl)-3-bromo-2-methylbenzamide] | 0.9 | 1.8 | 2.7 | 5.4
23 | COc1ccc(-c2cccc3c2CN(Cc2ccc(C(=O)Nc4ccccc4N)cc2)C3=O)cn1 [Example 22, N-(2-aminophenyl)-4-((4-(6-methoxypyridin-3-yl)-1-oxoisoindolin-2-yl)methyl)benzamide] | 12.4 | 9.5 | 10.2 | 10.3
24 | COc1ccc(-c2ccc3c(c2)CN(Cc2ccc(C(=O)Nc4ccccc4N)cc2)C3=O)cc1OC [Example 64, N-(2-aminophenyl)-4-((5-(3,4-dimethoxyphenyl)-1-oxoisoindolin-2-yl)methyl)benzamide] | 11.3 | 10.7 | 10.1 | 9.5
25 | N#Cc1ccc(-c2ccc3c(c2)CN(Cc2ccc(C(=O)Nc4ccccc4N)cc2)C3=O)cc1 [Example 65, N-(2-aminophenyl)-4-[5-(4-cyanophenyl)-1-oxo-2,3-dihydro-1H-isoindol-2-yl]methylbenzamide] | 12.9 | 15.7 | 13.5 | 11.4
26 | Cc1c(C(=O)NCCCCCC(=O)Nc2ccccc2N)cccc1-c1ccncc1 [Example 84, N-(5-(2-aminophenylcarbamoyl)pentyl)-2-methyl-3-(4-pyridinyl)-benzamide] | 1.9 | 3.3 | 7.8 | 17.3
